# Several values for one entry are separate records, joined by “and”; a condition that tells them apart may be missing. Identical values can stand only once.
# Tested on: COR L88 complex tumor spheroid viability
# Assay: Anticancer human tumor COR L88 cell line growth inhibition;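 note: compound exposure lasted 7 days before viability readout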;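 for viability, T/C: percent of DMSO vehicle-treated spheroids = 100%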
# Conditions: for viability, T/C: stronger effect = lower value
# Source text: Multicellular complex tumor spheroid response to DNA repair inhibitors in combination with DNA-damaging drugs
# This study explores the anticancer activities of DNA-damaging drugs and inhibitors of DNA damage repair, both as single agents and in combinations. Complex tumor spheroids comprised of malignant cells, endothelial cells and mesenchymal stem cells served as an in vitro model for human solid tumors. This model system incorporates physiologically relevant features and patient-derived or established malignant cell lines with clinically relevant genetic alterations from many tumor types. Twenty-six patient-derived or established malignant cell lines were evaluated representing sarcoma, melanoma, small cell lung cancer (SCLC), non-small cell lung cancer (NSCLC), as well as bladder, ovarian and pancreatic cancers. The concentration ranges selected for each drug and investigational agent were based upon clinically achievable concentrations if the clinical Cmax of the agent was known.
# Compounds. The drugs and compounds olaparib (NSC753686), talazoparib (NSC767125), berzosertib (NSC777718), elimusertib (NSC800525), nedisertib (NSC802822), VX-984 (NSC792969), AZD-1390 (NSC803789), temozolomide (NSC362856), topotecan (NSC609699), trabectedin (NSC813783), staurosporine (NSC755774), and gemcitabine (NSC613327) were obtained from the National Cancer Institute (NCI) Developmental Therapeutics Program Chemical Repository. The FDA-approved anticancer drug set is available from the Developmental Therapeutics Program at https://dtp.cancer.gov/organization/dscb/obtaining/available_plates.htm. […] The stock solutions were prepared in dimethyl sulfoxide (DMSO, Sigma-Aldrich, St. Louis, MO, cat. D2650) at 400-fold the tested concentration and stored at -70 degrees C. Prior to their use, the stock solutions were diluted in fresh medium and the final DMSO concentration in the assay was 0.25% (v/v). All drugs and investigational agents were tested over a range starting from a high concentration at or near the clinical Cmax and decreasing in half-log increments. If the clinical Cmax for an agent had not been determined, the highest concentration tested was 10 microM.
# Cell Lines. The patient-derived cancer cell (PDC) lines: 156681-154-R-J1-PDC, 283228-195-R-J1-PDC, 287954-098-R-J1-PDC, 292921-168-R-J2-PDC, 349418-098-R-PDC, 425362-245-T-J1-PDC, 556581-035-R-J1-PDC, and BL0293-F563-PDC were received from the NCI Patient-Derived Models Repository (PDMR, https://pdmr.cancer.gov). The established cell lines HS-SY-2 (RRID:CVCL_8719), MPNST, and SYO-1 (RRID:CVCL_7146) were obtained from the Sloan Kettering Institute. The alveolar soft parts sarcoma cell line ASPS-1 (RRID:CVCL_S738) was established at the NCI and grown from internal seed stocks. The following established cell lines were purchased from the American Type Culture Collection (ATCC, Manassas, VA): G-401 (ATCC, cat. CRL-1441, RRID:CVCL_0270), SW982 (ATCC, cat. HTB-93, RRID:CVCL_1734), VA-ES-BJ (ATCC, cat. CRL-2138, RRID:CVCL_1785), NCI-H719 (ATCC, cat. CRL-5837, RRID:CVCL_1582), NCI-H196 (ATCC, cat. CRL-5823, RRID:CVCL_1509), NCI-H841 (ATCC, cat. CRL-5845, RRID:CVCL_1595), NCI-H1618 (ATCC, cat. CRL-5879, RRID:CVCL_1480), NCI-H1876 (ATCC, cat. CRL-5902, RRID:CVCL_1503), DMS 114 (ATCC, cat. CRL-2066; RRID:CVCL_1174), NCI-H211 (ATCC, cat. CRL-5824; RRID:CVCL_1529), and SW 1271 (ATCC, cat. CRL-2177, RRID:CVCL_1716). The small cell lung cancer cell line COR-L88 was purchased from Sigma-Aldrich (cat. 92031917-1VL, RRID:CVCL_1141). The non-small cell lung cancer cell lines NCI-H226 (RRID:CVCL_1544) and NCI-H322M (RRID:CVCL_1557) were established at the NCI and grown from internal seed stocks. Pooled donor human umbilical vein endothelial cells (HUVEC, Lonza, cat. CC-2519) and human mesenchymal stem cells (hMSC, Lonza, cat. PT-2501) were purchased from Lonza (Walkersville, MD).
# Cell Culture. All cells were maintained in an incubator at 37 degrees C and 5% CO2 with 95% humidity. […]
# [1] = curve of first compound, second compound 0.003 µM
# [2] = curve of first compound, second compound 0.00949 µM
# [3] = curve of first compound, second compound 0.03 µM
# [4] = curve of first compound, second compound 0.0949 µM
# [5] = curve of first compound, second compound 0.3 µM
# [6] = second compound 0.003 µM, first compound 0.0316 µM
# [7] = second compound 0.003 µM, first compound 0.1 µM
# [8] = second compound 0.003 µM, first compound 0.316 µM
# [9] = second compound 0.003 µM, first compound 1 µM
# [10] = second compound 0.003 µM, first compound 3.16 µM
# [11] = second compound 0.003 µM, first compound 10 µM
# [12] = second compound 0.00949 µM, first compound 0.0316 µM
# [13] = second compound 0.00949 µM, first compound 0.1 µM
# [14] = second compound 0.00949 µM, first compound 0.316 µM
# [15] = second compound 0.00949 µM, first compound 1 µM
# [16] = second compound 0.00949 µM, first compound 3.16 µM
# [17] = second compound 0.00949 µM, first compound 10 µM
# [18] = second compound 0.03 µM, first compound 0.0316 µM
# [19] = second compound 0.03 µM, first compound 0.1 µM
# [20] = second compound 0.03 µM, first compound 0.316 µM
# [21] = second compound 0.03 µM, first compound 1 µM
# [22] = second compound 0.03 µM, first compound 3.16 µM
# [23] = second compound 0.03 µM, first compound 10 µM
# [24] = second compound 0.0949 µM, first compound 0.0316 µM
# [25] = second compound 0.0949 µM, first compound 0.1 µM
# [26] = second compound 0.0949 µM, first compound 0.316 µM
# [27] = second compound 0.0949 µM, first compound 1 µM
# [28] = second compound 0.0949 µM, first compound 3.16 µM
# [29] = second compound 0.0949 µM, first compound 10 µM
# [30] = second compound 0.3 µM, first compound 0.0316 µM
# [31] = second compound 0.3 µM, first compound 0.1 µM
# [32] = second compound 0.3 µM, first compound 0.316 µM
# [33] = second compound 0.3 µM, first compound 1 µM
# [34] = second compound 0.3 µM, first compound 3.16 µM
# [35] = second compound 0.3 µM, first compound 10 µM
smiles,measurement,setting,value
CC(C)n1c(=O)n(C)c2cnc3cc(F)c(-c4ccc(OCCCN5CCCCC5)nc4)cc3c21 + CC[C@@]1(O)C(=O)OCc2c1cc1n(c2=O)Cc2cc3c(CN(C)C)c(O)ccc3nc2-1,IC50,[1],5.16 µM
same,IC50,[2],0.157 µM
same,IC50,[3],< 0.0316 µM
same,IC50,[4],< 0.0316 µM
same,IC50,[5],< 0.0316 µM
same,"viability, T/C",[6],85%
same,"viability, T/C",[7],94.2%
same,"viability, T/C",[8],76.9%
same,"viability, T/C",[9],80.6%
same,"viability, T/C",[10],68.2%
same,"viability, T/C",[11],26.9%
same,"viability, T/C",[12],51.9%
same,"viability, T/C",[13],52.9%
same,"viability, T/C",[14],48.2%
same,"viability, T/C",[15],40.6%
same,"viability, T/C",[16],33%
same,"viability, T/C",[17],14.1%
same,"viability, T/C",[18],46.5%
same,"viability, T/C",[19],42.1%
same,"viability, T/C",[20],37.3%
same,"viability, T/C",[21],29.7%
same,"viability, T/C",[22],30.6%
same,"viability, T/C",[23],14.2%
same,"viability, T/C",[24],38.6%
same,"viability, T/C",[25],36.4%
same,"viability, T/C",[26],30.2%
same,"viability, T/C",[27],28.6%
same,"viability, T/C",[28],27.2%
same,"viability, T/C",[29],15.3%
same,"viability, T/C",[30],44.3%
same,"viability, T/C",[31],42.7%
same,"viability, T/C",[32],39%
same,"viability, T/C",[33],34.5%
same,"viability, T/C",[34],27.7%
same,"viability, T/C",[35],14.7%
COc1cc(C)[nH]c(=O)c1CN1CCc2c(Cl)cc(C(OC)C3COC3)c(Cl)c2C1=O (configuration not stated) + CC[C@@]1(O)C(=O)OCc2c1cc1n(c2=O)Cc2cc3c(CN(C)C)c(O)ccc3nc2-1,IC50,[1],> 10 µM
same,IC50,[2],> 10 µM
same,IC50,[3],< 0.0316 µM
same,IC50,[4],< 0.0316 µM
same,IC50,[5],< 0.0316 µM
same,"viability, T/C",[6],87%
same,"viability, T/C",[7],90.9%
same,"viability, T/C",[8],83.5%
same,"viability, T/C",[9],85.4%
same,"viability, T/C",[10],86.5%
same,"viability, T/C",[11],75%
same,"viability, T/C",[12],65.7%
same,"viability, T/C",[13],53.2%
same,"viability, T/C",[14],53.3%
same,"viability, T/C",[15],50.9%
same,"viability, T/C",[16],49%
same,"viability, T/C",[17],52.7%
same,"viability, T/C",[18],43.3%
same,"viability, T/C",[19],44.3%
same,"viability, T/C",[20],38.7%
same,"viability, T/C",[21],39.2%
same,"viability, T/C",[22],35.5%
same,"viability, T/C",[23],17.1%
same,"viability, T/C",[24],46.2%
same,"viability, T/C",[25],43.8%
same,"viability, T/C",[26],41.2%
same,"viability, T/C",[27],45.5%
same,"viability, T/C",[28],38.2%
same,"viability, T/C",[29],19.1%
same,"viability, T/C",[30],47.6%
same,"viability, T/C",[31],46.1%
same,"viability, T/C",[32],41.2%
same,"viability, T/C",[33],42.8%
same,"viability, T/C",[34],41.2%
same,"viability, T/C",[35],37.5%
CNCc1ccc(-c2cc(-c3nc(-c4ccc(S(=O)(=O)C(C)C)cc4)cnc3N)on2)cc1,"viability, T/C",compound 0.00949 µM,98.5% and 103% and 105%
same,"viability, T/C",compound 0.03 µM,111% and 118% and 104%
same,"viability, T/C",compound 0.0949 µM,109% and 107% and 101%
same,"viability, T/C",compound 0.3 µM,87% and 84.6% and 56.4%
same,"viability, T/C",compound 0.949 µM,40.9% and 47.2% and 22.6%
same,"viability, T/C",compound 3 µM,11.8% and 11.3% and 5.68%
same,IC50,curve of compound,0.753 µM and 0.848 µM and 0.391 µM
[2H]c1nc(C)nc([2H])c1-c1cc(NC[C@@H](C)c2cccc3c(C(=O)NC)ccnc23)ncn1 + CC[C@@]1(O)C(=O)OCc2c1cc1n(c2=O)Cc2cc3c(CN(C)C)c(O)ccc3nc2-1,IC50,[1],> 10 µM
same,IC50,[2],> 10 µM
same,IC50,[3],2 µM
same,IC50,[4],1.55 µM
same,IC50,[5],8.58 µM
same,"viability, T/C",[6],99.2%
same,"viability, T/C",[7],98.1%
same,"viability, T/C",[8],103%
same,"viability, T/C",[9],99%
same,"viability, T/C",[10],101%
same,"viability, T/C",[11],100%
same,"viability, T/C",[12],68.6%
same,"viability, T/C",[13],72.5%
same,"viability, T/C",[14],83.1%
same,"viability, T/C",[15],87.7%
same,"viability, T/C",[16],85%
same,"viability, T/C",[17],85.1%
same,"viability, T/C",[18],56.6%
same,"viability, T/C",[19],58.3%
same,"viability, T/C",[20],52.1%
same,"viability, T/C",[21],55.2%
same,"viability, T/C",[22],47.3%
same,"viability, T/C",[23],38.9%
same,"viability, T/C",[24],58.3%
same,"viability, T/C",[25],59.8%
same,"viability, T/C",[26],54.7%
same,"viability, T/C",[27],62.5%
same,"viability, T/C",[28],34.4%
same,"viability, T/C",[29],37%
same,"viability, T/C",[30],55.9%
same,"viability, T/C",[31],55.4%
same,"viability, T/C",[32],57.1%
same,"viability, T/C",[33],57.3%
same,"viability, T/C",[34],57.1%
same,"viability, T/C",[35],42.4%
CC1COCCN1c1cc(-c2ccnn2C)c2ccnc(-c3ccn[nH]3)c2n1 (configuration not stated) + CC[C@@]1(O)C(=O)OCc2c1cc1n(c2=O)Cc2cc3c(CN(C)C)c(O)ccc3nc2-1,IC50,[1],0.15 µM
same,IC50,[2],< 0.0316 µM
same,IC50,[3],< 0.0316 µM
same,IC50,[4],< 0.0316 µM
same,IC50,[5],< 0.0316 µM
same,"viability, T/C",[6],72.1%
same,"viability, T/C",[7],53.5%
same,"viability, T/C",[8],41.7%
same,"viability, T/C",[9],25.8%
same,"viability, T/C",[10],16.1%
same,"viability, T/C",[11],4.41%
same,"viability, T/C",[12],37.8%
same,"viability, T/C",[13],35.5%
same,"viability, T/C",[14],27.7%
same,"viability, T/C",[15],17.1%
same,"viability, T/C",[16],7.44%
same,"viability, T/C",[17],3.34%
same,"viability, T/C",[18],26.1%
same,"viability, T/C",[19],23%
same,"viability, T/C",[20],16.6%
same,"viability, T/C",[21],10.1%
same,"viability, T/C",[22],5.31%
same,"viability, T/C",[23],2.97%
same,"viability, T/C",[24],15.2%
same,"viability, T/C",[25],12.2%
same,"viability, T/C",[26],8.67%
same,"viability, T/C",[27],5.76%
same,"viability, T/C",[28],2.87%
same,"viability, T/C",[29],1.98%
same,"viability, T/C",[30],6.79%
same,"viability, T/C",[31],6.02%
same,"viability, T/C",[32],5.21%
same,"viability, T/C",[33],3.2%
same,"viability, T/C",[34],1.82%
same,"viability, T/C",[35],1.1%
